From US20170008888A1 (KYORIN PHARMACEUTICAL CO., LTD., priority 2014, published 2017)

Assays:
[1] = target: T1, recombinant human ERK5 catalytic domain (Homo sapiens, UniProt Q13164); assay: Recombinant human ERK5 radiometric (HotSpot) assay; assay type: biochemical; settings: 10 μM ATP, 20 μM myelin basic protein substrate; read-out: rhERK5 IC50
T1 construct: Recombinant human ERK5 catalytic domain radiometric assays; purchased Reaction Biology, Corp (Malvern, Pa.), which ran the assay as a service
T1 sequence (Q13164 55-347 limits assumed): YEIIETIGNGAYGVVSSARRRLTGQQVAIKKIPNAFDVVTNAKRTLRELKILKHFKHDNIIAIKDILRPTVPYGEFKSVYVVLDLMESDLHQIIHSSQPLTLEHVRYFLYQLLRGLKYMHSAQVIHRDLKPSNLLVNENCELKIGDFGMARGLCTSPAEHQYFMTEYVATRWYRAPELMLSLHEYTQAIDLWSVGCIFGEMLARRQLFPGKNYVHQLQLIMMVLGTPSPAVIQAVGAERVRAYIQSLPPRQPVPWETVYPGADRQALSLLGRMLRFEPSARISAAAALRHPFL
Experimental: In this example, potency of the compounds in recombinant human ERK5 was assayed.
Recombinant human ERK5 catalytic domain radiometric assays were performed by Reaction Biology, Corp (Malvern, Pa.). The HotSpot radiometric assay is based on conventional filter-binding assays (Nature Biotechnology (2011) 29: 1039-1045). Compounds were tested at 20 μM down by ⅓ in a 10 point serial dilution series. Briefly, [γ-33P]-ATP was used as the tracer along with 10 μM cold ATP to label ERK5 in the presence of 20 μM myelin basic protein substrate.

human PBMCs = assay: Human PBMC TNF-α response to endotoxin (ELISA); assay type: cell-based; settings: 0.1 μg/ml LPS 16 h, read-out: EC50 for the inhibition of the human PBMC TNF-α response to endotoxin, ave. ± S.D.
Outline: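 PBMCs at 2e6 cells/ml in RPMI 1640 with 10% charcoal-dextran-treated FBS were pre-treated 1 h at 37 °C with compound (4-point 1:5 dilution from 10 μM). Stimulation with 0.1 μg/ml E. coli 0111:B4 LPS for 16 h; TNF-α measured by ELISA (A450) in 25-fold diluted supernatant.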

SMILES	IC50 [1] [nM]	EC50 (human PBMCs) [nM]
CN1C(=O)c2ccccc2N(C)c2cc(Nc3ccc(C(=O)N4CCC[C@H](O)C4)cc3OCCF)ncc21 [Compound T32]	50 to 200	870
CCOc1cc(C(=O)N2CCC[C@@H](C#N)C2)ccc1Nc1cc2c(cn1)N(C)C(=O)c1ccccc1N2C [Compound T23]	> 200	2390
CCCOc1cc(C(=O)N2CCC[C@H](O)C2)ccc1Nc1cc2c(cn1)N(C)C(=O)c1ccccc1N2C [Compound T39]	> 200	920
CCOc1cc(C(=O)N2CCC(N(C)CCO)CC2)ccc1Nc1cc2c(cn1)N(C)C(=O)c1ccccc1N2C [Compound T38]	20 to 50	320
CCOc1cc(C(=O)N2CCC[C@@H](N3CCCC3)C2)ccc1Nc1cc2c(cn1)N(C)C(=O)c1ccccc1N2C [Compound T57]	50 to 200	650
CCOc1cc(C(=O)N2CC[C@@H](N(C)CCO)C2)ccc1Nc1cc2c(cn1)N(C)C(=O)c1ccccc1N2C [Compound T55]	20 to 50	840

Now from value to compound, other results behind:

IC50 [1] [nM]	SMILES	EC50 (human PBMCs) [nM]
20 to 50	CCOc1cc(C(=O)N2CCC(N3CCN[C@H](C)C3)CC2)ccc1Nc1cc2c(cn1)N(C)C(=O)c1ccccc1N2C [Compound T51]	740
20 to 50	CCOc1cc(C(=O)N2CCN(CCC#N)CC2)ccc1Nc1cc2c(cn1)N(C)C(=O)c1ccccc1N2C [Compound T17]	900
< 20	CCOc1cc(C(=O)N2CCC(N3CCCNCC3)CC2)ccc1Nc1cc2c(cn1)N(C)C(=O)c1ccccc1N2C [Compound T45]	1480
